These are literature values, as cited in patent US20050037089A1, “Method for promoting bone growth” (priority 2003, published 2005).

Regarding `CC[C@H](C)[C@H](NC(=O)[C@H](CCC(=O)O)NC(=O)[C@H](CO)NC(=O)[C@@H](NC(=O)[C@@H](N)CO)C(C)C)C(=O)N[C@@H](CCC(N)=O)C(=O)N[C@@H](CC(C)C)C(=O)N[C@@H](CCSC)C(=O)N[C@@H](Cc1cnc[nH]1)C(=O)N[C@@H](CC(N)=O)C(=O)N[C@@H](CC(C)C)C(=O)NCC(=O)N[C@@H](CCCCN)C(=O)N[C@@H](Cc1cnc[nH]1)C(=O)N[C@@H](CC(C)C)C(=O)N[C@@H](CC(N)=O)C(=O)N[C@@H](CO)C(=O)N[C@@H](CCSC)C(=O)N[C@@H](CCC(=O)O)C(=O)N[C@@H](CCCN=C(N)N)C(=O)N[C@H](C(=O)N[C@@H](CCC(=O)O)C(=O)N[C@@H](Cc1c[nH]c2ccccc12)C(=O)N[C@@H](CC(C)C)C(=O)N[C@@H](CCCN=C(N)N)C(=O)N[C@@H](CCCCN)C(=O)N[C@@H](CCCCN)C(=O)N[C@@H](CC(C)C)C(=O)N[C@@H](CCC(N)=O)C(=O)N[C@@H](CC(=O)O)C(=O)N[C@H](C(=O)N[C@@H](Cc1cnc[nH]1)C(=O)N[C@@H](CC(N)=O)C(=O)N[C@@H](Cc1ccccc1)C(=O)O)C(C)C)C(C)C` [hPTH(1-34)], where the note is “patients with osteoporosis, subcutaneous administration”, the bone formation entry was “increase bone formation”. For the setting “postmenopausal women, daily subcutaneous administration of 20 μg or 40 μg”, the bone density entry is on record as “increase bone density”.
